The text below walks through data of PubChem BioAssay (NCI).

The structures appear in SMILES notation.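 48-hour exposure; five concentrations; linearly interpolated endpoints. Abbreviation: GI50, concentration required for 50% inhibition of growth. TGI: total growth inhibition.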 Where a SMILES comes first, the peptide text is derived from it. [ ]: non-standard residue; d: D form. pGlu = O=C1CC[CH](C(=O)O)N1; Thz = O=C(O)[CH]1CSCN1

A word on the TGI: it is the concentration giving total growth inhibition. A low value points to more potent growth arrest. Broadly, the GI50 is the concentration giving 50% growth inhibition.

Experiment in all cases: DTP human tumour cell line panel, 48 h
Assay [1] has as its system SF-295 CNS.
Assay [2] has as its system TK-10 renal.
Assay [3] concerns HL-60(TB) leukemia.
In assay [4] the test system is A549 NSCLC.
Assay [5] deals with NCI/ADR-RES ovarian.
Assay [6] concerns MOLT-4 leukemia.
In assay [7] the test system is OVCAR-8 ovarian.
In assay [8] the test system is SN12C renal.
Assay [9] has as its system ACHN renal.
The subject of assay [10] is SF-268 CNS.
Assay [11] has as its system MALME-3M melanoma.

As to `COc1ccc(/[N+]([O-])=C/c2ccc(OC(=S)S)c(OC)c2)cc1`, the TGI in assay [1] was over 100 µM; in assay [2] it was over 100 µM; in assay [3] it was 53.4 µM; in assay [4], over 100 µM; in [5], 92.3 µM; in [6], over 100 µM. Besides, the TGI in assay [7], in assay [8], in assay [9], in assay [10] and in assay [11] was over 100 µM in each case.
Consider `Nc1nc(Cl)cc(NCC2(CCO)CCC2)n1`, for which the TGI was over 10 µM in [1]; over 100 µM in assay [2]; over 100 µM in assay [3]; over 100 µM in [4]; over 100 µM in [5]; over 100 µM in assay [6]. Also, the TGI in [7], in [8], in assay [9] and in assay [11] was over 100 µM in each case.
With `ClCc1nc2ccccc2[nH]1`, the total growth inhibition concentration (TGI) in assay [1], in assay [2], in [3], in assay [4], in [5] and in assay [6] was over 100 µM throughout. Moreover, the TGI in assay [7], in [8], in assay [9], in assay [10] and in [11] was over 100 µM each time.
`C[C@H](Nc1nc(N)c(N=O)c(=O)n1C)C(=O)O`: the TGI in assay [1], in assay [2], in assay [3], in assay [4], in assay [5] and in assay [6] was over 10 µM each time. For the same compound, the TGI in assay [7], in assay [8], in [9], in assay [10] and in assay [11] was over 10 µM throughout.
As for `COC(=O)CCc1ccc(CCC(=O)OC)cc1`, the TGI in [1], in assay [2], in assay [3], in [4], in assay [5] and in assay [6] was over 100 µM throughout. In addition, the TGI in assay [7], in assay [9], in assay [10] and in [11] was over 100 µM in each case.
Regarding `COC(NC(=O)Nc1ccc(C)cc1)(C(F)(F)F)C(F)(F)F`, the TGI in [1] was 90.7 µM; in [2] it was over 100 µM; in assay [3] it was over 100 µM; in assay [4], over 100 µM; in assay [5], 84.7 µM; in assay [6], 48.6 µM. Further, the TGI in assay [7] was 78.5 µM; in [8] it was over 100 µM; in assay [9], over 100 µM; in [10], over 100 µM; in assay [11], over 100 µM.
Take `O=C1CCC(C(=O)N2CSCC2C(=O)O)N1` (stereo not drawn) ([pGlu]-[Thz]-OH; configuration not given here): the TGI in assay [1], in [2], in [3], in assay [4], in assay [5] and in assay [6] was over 100 µM each time. Moreover, the TGI in assay [7], in [8], in assay [9], in assay [10] and in assay [11] was over 100 µM throughout.
In the case of `Cc1nc(-c2ccccc2)cn2c1nc1ccccc12`, the TGI in assay [1] is over 65.8 µM; in [2], over 74.7 µM; in [3], over 100 µM; in assay [4] it was 34.8 µM; in assay [5], 55.7 µM; in [6], over 100 µM. Further, the TGI in [7] was 37.3 µM; in assay [8] it was over 84.7 µM; in assay [9], 49.4 µM; in assay [10], over 66.8 µM; in assay [11], 48.9 µM.
Take `Cc1ccc(S(=O)(=O)n2cc(C=O)c(-c3cn(S(=O)(=O)c4ccc(C)cc4)cc3-c3cn(S(=O)(=O)c4ccc(C)cc4)cc3C=O)c2)cc1`: the total growth inhibition concentration (TGI) is over 100 µM in assay [1]; 72 µM in assay [2]; over 100 µM in assay [3]; over 100 µM in [4]; over 100 µM in [5]; 93.3 µM in [6]. Also, the concentration for total growth inhibition (TGI) in [7], in [8], in assay [10] and in [11] was over 100 µM each time.
Turning to `CCOP(=O)(CC(=O)C1CC1)OCC`, the concentration for total growth inhibition (TGI) in [1], in [2], in assay [3], in assay [4], in assay [5] and in assay [6] was over 100 µM in each case. For the same compound, the concentration for total growth inhibition (TGI) in assay [7], in assay [8], in assay [9], in [10] and in assay [11] was over 100 µM throughout.
Turning to `NC1=Nc2ccccc2Sc2nncn21`, the concentration for total growth inhibition (TGI) in assay [1], in assay [2], in assay [3], in assay [4], in assay [5] and in [6] was over 100 µM in each case. Further, the TGI in assay [7], in assay [8], in [9], in assay [10] and in assay [11] was over 100 µM each time.
Take `FC1(F)ON2CCc3ccccc3C2[C@H]1c1ccccc1` (stereo partly drawn): the GI50 in assay [1], in [2], in assay [3], in assay [4], in [6] and in assay [8] was over 100 µM throughout. The GI50 in [9] is over 100 µM; in [10] it was over 100 µM; in assay [11], 14.5 µM. Moreover, the concentration for total growth inhibition (TGI) in [1], in assay [2], in assay [3], in [4], in [5] and in assay [6] was over 100 µM each time. Further, the TGI is over 100 µM in [7]; over 100 µM in assay [8]; over 100 µM in assay [9]; over 100 µM in assay [10]; 88.8 µM in assay [11].
